Experimental data published in patent EP4488270A1, “TRIAZOLE COMPOUNDS FOR THE CONTROL OF INVERTEBRATE PESTS” (priority 2023, dated 2025).

Assays:
Format in all cases: in vivo
[1] = system: Southern armyworm (Spodoptera eridania), 2nd instar larvae; experiment: Southern armyworm foliar spray test on lima bean plants; details: 96 h, 4 days after treatment, read-out: mortality in comparison with untreated controls
Protocol: B.4. Southern armyworm (Spodoptera eridania), 2nd instar larvae
The active compounds were formulated by a Tecan liquid handler in 100% cyclohexanone as a 10,000-ppm solution supplied in tubes. The 10,000-ppm solution was serially diluted in 100% cyclohexanone to make interim solutions. These served as stock solutions for which final dilutions were made by the Tecan in 50% acetone:50% water (v/v) into 10 or 20ml glass vials. A non-ionic surfactant (Kinetic®) was included in the solution at a volume of 0.01% (v/v). The vials were then inserted into an automated electrostatic sprayer equipped with an atomizing nozzle for application to plants/insects. Lima bean plants (variety Sieva) were grown 2 plants to a pot and selected for treatment at the 1st true leaf stage. Test solutions were sprayed onto the foliage by an automated electrostatic plant sprayer equipped with an atomizing spray nozzle. The plants were dried in the sprayer fume hood and then removed from the sprayer. Each pot was placed into perforated plastic bags with a zip closure. Ten to 11 armyworm larvae were placed into the bag and the bags zipped closed. […] Mortality and reduced feeding were assessed 4 days after treatment, compared to untreated control plants.

[2] = system: yellow fever mosquito (Aedes aegypti); experiment: whole plant or invertebrate; details: 48 h, larval mortality, 2 days, 28 ± 1°C, read-out: mortality in comparison with untreated controls
Protocol: B.5 Yellow fever mosquito (Aedes aegypti)
For evaluating control of yellow fever mosquito (Aedes aegypti) the test unit consisted of 96-well-microtiter plates containing 200µl of tap water per well and 5-15 freshly hatched A. aegypti larvae.
The active compounds were formulated using a solution containing 75% (v/v) water and 25% (v/v) DMSO. Different concentrations of formulated compounds or mixtures were sprayed onto the insect diet at 2.5µl, using a custom-built micro atomizer, at two replications.
After application, microtiter plates were incubated at 28 ± 1°C, 80 ± 5 % RH for 2 days. Larval mortality was then visually assessed.

[3] = system: tobacco budworm (Heliothis virescens); experiment: Tobacco budworm test, insect diet with eggs in 96-well microtiter plates; details: 120 h, egg and larval mortality, 5 days, about 28 ± 1°C, read-out: mortality in comparison with untreated controls
Protocol: B.2 Tobacco budworm (Heliothis virescens)
For evaluating control of tobacco budworm (Heliothis virescens), the test unit consisted of 96-well-microtiter plates containing an insect diet and 15-25 H. virescens eggs.
The compounds were formulated using a solution containing 75% v/v water and 25% v/v DMSO. Different concentrations of formulated compounds were sprayed onto the insect diet at 10µl, using a custom-built micro atomizer, at two replications.
After application, microtiter plates were incubated at about 28 ± 1°C and about 80 ± 5 % relative humidity for 5 days. Egg and larval mortality was then visually assessed.

[4] = system: green peach aphid (Myzus persicae); experiment: Green peach aphid systemic test, artificial diet under membrane in 96-well microtiter plates; details: 72 h, adult aphids on treated diet, 3 days, about 23 ± 1°C, read-out: mortality in comparison with untreated controls
Text: B.1 Green Peach Aphid (Myzus persicae)
For evaluating control of green peach aphid (Myzus persicae) through systemic means, the test unit consisted of 96-well-microtiter plates containing liquid artificial diet under an artificial mem brane.
The compounds were formulated using a solution containing 75% v/v water and 25% v/v DMSO. Different concentrations of formulated compounds were pipetted into the aphid diet, using a custom built pipetter, at two replications.
After application, 5 - 8 adult aphids were placed on the artificial membrane inside the microtiter plate wells. The aphids were then allowed to suck on the treated aphid diet and incubated at about 23 ± 1°C and about 50 ± 5 % relative humidity for 3 days. Aphid mortality and fecundity was then visually assessed.

[5] = system: Orchid thrips (Dichromothrips corbetti); experiment: Orchid thrips floral-immersion test; details: adult thrips on dipped orchid petals, 72 hours after treatment, read-out: mortality in comparison with untreated controls
Protocol: B.6 Orchid thrips (Dichromothrips corbetti)
Dichromothrips corbetti adults used for bioassay are obtained from a colony maintained continuously under laboratory conditions. For testing purposes, the test compound is diluted in a 1:1 mixture of acetone:water (vol:vol), plus Kinetic at a rate of 0.01% v/v.
Thrips potency of each compound is evaluated by using a floral-immersion technique. Each orchid petal is dipped into treatment solution and allowed to dry in Petri dishes. Treated petals are placed into individual re-sealable plastic along with about 20 adult thrips. All test arenas are held under dark condition and a temperature of about 28°C for duration of the assay. The percent mortality is recorded 72 hours after treatment.

[6] = system: boll weevil (Anthonomus grandis); experiment: Boll weevil test, insect diet with eggs in 96-well microtiter plates; details: 120 h, read-out: mortality in comparison with untreated controls
Protocol: B.3 Boll weevil (Anthonomus grandis)
For evaluating control of boll weevil (Anthonomus grandis), the test unit consisted of 96-well-microtiter plates containing an insect diet and 5-10 A. grandis eggs.
The compounds were formulated using a solution containing 75% v/v water and 25% v/v DMSO. Different concentrations of formulated compounds were sprayed onto the insect diet at 5µl, using a custom-built micro atomizer, at two replications.
After application, microtiter plates were incubated at about 25 ± 1°C and about 75 ± 5 % relative humidity for 5 days. Egg and larval mortality was then visually assessed.

CC(NC(=O)c1cc(C(F)(F)F)cc(C(F)(F)F)c1)c1nccnc1-c1ncn(C2(C(N)=O)CC2)n1 (stereo not drawn) [I-2, N-[1-[3-[1-(1-carbamoylcyclopropyl)-1,2,4-triazol-3-yl]pyrazin-2-yl]ethyl]-3,5-bis(trifluoromethyl)benzamide]
≥ 75%: mortality at 300 ppm [1] | mortality at 2500 ppm [2] | mortality at 2500 ppm [3] | mortality at 2500 ppm [4] | mortality at 300 ppm [5] | mortality at 2500 ppm [6]

CC(NC(=O)c1cc(C(F)(F)F)cc(C(F)(F)F)c1)c1nccnc1-c1ncn(C2(C#N)CC2)n1 (stereo not drawn) [I-3, N-[1-[3-[1-(1-cyanocyclopropyl)-1,2,4-triazol-3-yl]pyrazin-2-yl]ethyl]-3,5-bis(trifluoromethyl)benzamide]
≥ 75%: mortality at 300 ppm [1] | mortality at 2500 ppm [2] | mortality at 2500 ppm [3] | mortality at 2500 ppm [4] | mortality at 300 ppm [5] | mortality at 2500 ppm [6]
